Assay results from patent CN101993370A, “蓝萼甲素酸酯衍生物及其制备方法和应用” (SHANGHAI JINHAO PHARMACEUTICAL DEVELOPMENT Co Ltd, priority 2009, dated 2011).

Legend:
[1] = system: lung cancer A549 tumor cells [肺癌A549肿瘤细胞]; experiment: MTT assay, A549 lung cancer tumor cells (Example 33); type: cell-based; conditions: 48 h, positive control
[2] = cited from earlier work
[3] = cited from earlier work; remark: listed apart in the source
[4] = system: Lewis lung cancer [Lewis肺癌]; conditions: solid tumor; cited from earlier work
[5] = system: 5180 solid type [5180实体型]; conditions: cited from earlier work
[6] = in vivo; cited from earlier work
[7] = system: 5180 ascites type [5180腹水型]; conditions: mice bearing 5180 ascites type; cited from earlier work
[8] = in vivo and in vitro; cited from earlier work
[9] = system: HCA ascites type [HCA腹水型]; conditions: mice bearing HCA ascites type; cited from earlier work
[10] = cited from earlier work; remark: listed apart in the source
HCA solid type [HCA实体型] = conditions: cited from earlier work

| Compound | A value (490nm) ([1]; 0.01l/ml) | inhibition rate ([1]; 0.01l/ml) | A value (490nm) ([1]; 0.1μl/ml) | inhibition rate ([1]; 0.1μl/ml) | A value (490nm) ([1]; 1μl/ml) | inhibition rate ([1]; 1μl/ml) | anticancer effect in vitro [2] | solubility in nonpolar solvents ([3]; chloroform and other nonpolar solvents) | solubility in water ([3]; water) | inhibition of tumor growth [4] | inhibition of tumor growth [5] | elimination [6] | half-life [6] | life prolongation rate [7] | antitumor effect [8] | antitumor spectrum [8] | dose dependence of antitumor effect [8] | life prolongation rate [9] | requirement for efficacy in vivo [10] | inhibition of tumor growth (HCA solid type [HCA实体型]) |
| --- | --- | --- | --- | --- | --- | --- | --- | --- | --- | --- | --- | --- | --- | --- | --- | --- | --- | --- | --- | --- |
| COc1cccc2c1C(=O)c1c(O)c3c(c(O)c1C2=O)C[C@@](O)(C(=O)CO)C[C@@H]3O[C@H]1C[C@H](N)[C@H](O)[C@H](C)O1 [阿霉素] | 0.452 ± 0.057 | 59.46% | 0.406 ± 0.075 | 73.31% | 0.370 ± 0.087 | 81.21% |  |  |  |  |  |  |  |  |  |  |  |  |  |  |
| C=C1C(=O)[C@@]23[C@H](O)C[C@@H]4C(C)(C)C(=O)CC[C@@]4(C)[C@@H]2CC[C@@H]1[C@H]3O [蓝萼甲素] |  |  |  |  |  |  | 明显的抗癌作用 | 易溶于氯仿等非极性溶剂 | 在水中不溶 | 能抑制 | 能抑制 | 药物在体内消除很快 | 半衰期短 | 明显增加 | 较强的抗肿瘤作用 | 抗瘤谱较广 | 呈剂量依赖性 | 明显增加 | 需大剂量长时间用药才能产生药效 | 能抑制 |
